Results from the METLIN SMRT retention time set (Domingo-Almenara et al. 2019).

Assay: gradient 5% acetonitrile 3 min, to 50% in 2 min, to 85% in 15 min, held 3 min, 100 µL/min
Conditions: column: Zorbax Extend-C18 2.1 x 50 mm; eluents: water / acetonitrile, 0.1% formic acid
Procedure, shortened: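 Retention times of pure standards were taken from adduct peaks that were selected by computer and manually inspected. Over 3 months, mixtures of ~100 molecules were run by HPLC–quadrupole time-of-flight mass spectrometry in positive and negative ionization mode. The Zorbax Extend-C18 column (2.1 × 50 mm, 1.8 μm) ran at 100 μL/min in water and acetonitrile, each containing 0.1% formic acid, with 40 μL dead volume and 900 μL dwell volume.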

RP-LC retention time [s] | Structure (SMILES)
1120 | CCn1c(=O)c2ccccc2n(Cc2nc(-c3cccc(Br)c3)no2)c1=O
1020 | COc1cccc(-n2nc(-c3nc(-c4ccccn4)no3)c3ccccc3c2=O)c1
672 | Cc1ccc(-c2cn3cccc(C)c3n2)cc1NS(=O)(=O)c1ccccc1
885 | CCc1ccc(NC(=O)COc2cc(C)nc(N3CCN(c4ccccc4)CC3)n2)cc1
693 | Cc1ccc(-c2ncccc2CNS(=O)(=O)Cc2ccccc2F)cc1
1060 | COc1ccc(C(O)Cn2ccn3nc(-c4ccc(C(C)C)cc4)cc3c2=O)cc1 (configuration not stated)
918 | Cc1ccccc1-c1noc(Cn2ccn(-c3ccc(Cl)cc3)c(=O)c2=O)n1
1220 | O=C(Nc1nc(-c2ccc3ccccc3c2)cs1)c1ccc(Cl)cc1Cl
877 | O=C(CCn1nnc2cc(-c3noc(COc4ccc(F)cc4)n3)ccc21)N1CCCC1
874 | Cc1ccc(NC(=O)COc2nc(C)nc3ccccc23)c(Br)c1
1140 | CCOc1ccc(-n2c(=O)c3sccc3n(Cc3nc(-c4ccc(Cl)c(F)c4)no3)c2=O)cc1

The remaining lines, values behind:

Structure (SMILES) | RP-LC retention time [s]
O=C(Nc1nc2c(s1)COc1ccccc1-2)c1cc(Cl)ccc1Cl | 1030
CN1C(=O)c2cccnc2Sc2cc(NC(=O)c3c(F)cccc3Cl)ccc21 | 783
N#Cc1ccc(C(=O)NC(c2ccccc2)c2nnc(N3CCCC3)o2)cc1 (configuration not stated) | 765
Cc1ccc(NC(=O)Nc2cccc(-c3ccc(N4CCOCC4)nn3)c2)cc1F | 739
CCN1C(=O)CN(C(=O)C2CCCCC2)CC12CCOCC2 | 654
CCOc1ccc(-n2ccn3c(CCCC(=O)NC4CCCCCC4)nnc3c2=O)cc1 | 783
Cc1ccc(CNC(=O)CCC2CCN(c3cc(NC4CC4)ncn3)CC2)cc1 | 714
Cc1ccc(C(=O)NCCn2c(C)cnc2C2CC2)s1 | 584
COC(=O)c1ccc(NC(=O)N2CC(C)Oc3ccccc32)cc1 (configuration not stated) | 879
COCCC1CCN(C(=O)CN(C)C(=O)c2cnccn2)CC1 | 580
O=C(c1cn2nc(Cl)ccc2n1)N1CCN(c2ccc(F)cc2)CC1 | 826
Cc1ccc2nc(CN3CCN(C(=O)Nc4ccc(F)cc4F)CC3)oc2c1 | 706
Cc1nc(CNC(=O)C2CCN(C(=O)Nc3ccc(C)c(C)c3)CC2)cs1 | 675
O=C(NC1CCCc2c1[nH]c1c(Cl)cccc21)c1ccncc1 (configuration not stated) | 850
Cc1cccc(C2CCCN2C(=O)Cn2cc(Cl)cn2)c1 (configuration not stated) | 866
CCNC(=O)C1CCN(C(=O)Nc2ccc(NC(=O)Nc3ccc(C)cc3C)cc2)CC1 | 729
O=C(Nc1cccc(Cl)c1)c1ccccn1 | 1010
Cc1cc(Br)ccc1NC(=O)C1CCCN(c2nccnc2Oc2ccccc2)C1 (configuration not stated) | 1120
O=C(Cn1cc(-c2ccccc2)c2ncnc(N3CCOCC3)c21)NCC1CCCO1 (configuration not stated) | 644
O=C(O)c1nnn(-c2ccc3c(c2)OCO3)c1-c1ccncc1 | 612
Cc1cccn2cc(C(=O)NCc3cc(F)cc(F)c3)nc12 | 668
O=C(Nc1ccc2nc(N3CCN(C4CCCCC4)CC3)cc(C(=O)O)c2c1)c1ccc(F)cc1 | 625
CCOC(=O)c1c(C)oc2ncnc(NCCN3CCN(c4ccc(OC)cc4)CC3)c12 | 716
Cc1oc2ncnc(N3CCCC(C(=O)N4CCN(C5CCCCC5)CC4)C3)c2c1C (configuration not stated) | 1230
O=C(NC1CC1)c1ccc(OCC2CCN(C(=O)c3ccc(F)c(Cl)c3)CC2)cc1 | 870
O=[N+]([O-])c1ccc(/C=C\c2ccncc2)cc1 | 685
